# Tested on: membrane preparation from dog kidney cortex
# Experiment: Inactivation by membrane preparation from dog kidney cortex
# Assay type: in vitro ADME
# From the text: A unique proteolytic product separated by HPLC on a reverse phase column appears as a single peak which elutes prior to the intact peptide.
smiles,measurement,value
CC[C@H](C)[C@@H]1NC(=O)[C@H](CCCNC(=N)N)NC(=O)[C@H](CC(=O)O)NC(=O)[C@H](CCSC)NC(=O)[C@H](CCCNC(=N)N)NC(=O)CNC(=O)CNC(=O)[C@H](Cc2ccccc2)NC(=O)[C@@H](NC(=O)[C@H](CO)NC(=O)[C@H](CO)NC(=O)[C@H](CCCNC(=N)N)NC(=O)[C@H](CCCNC(=N)N)NC(=O)[C@H](CC(C)C)NC(=O)[C@@H](N)CO)CSSC[C@@H](C(=O)N[C@@H](CC(N)=O)C(=O)N[C@@H](CO)C(=O)N[C@@H](Cc2ccccc2)C(=O)N[C@@H](CCCNC(=N)N)C(=O)N[C@@H](Cc2ccc(O)cc2)C(=O)O)NC(=O)CNC(=O)[C@H](CC(C)C)NC(=O)CNC(=O)[C@H](CO)NC(=O)[C@H](CCC(N)=O)NC(=O)[C@H](C)NC(=O)CNC1=O [ANF-(99-126)],position of the inactivating cleavage of the ring structure,between Cys-105 and Phe-106

# Source: US5665861A, “Cardiodilatin fragment, process for preparing same and use thereof” (HaemoPep Pharma GmbH, priority 1987, dated 1997)
